In US20220167618A1, “PESTICIDALLY ACTIVE AZOLE-AMIDE COMPOUNDS” (SYNGENTA CROP PROTECTION AG, priority 2019, published 2022):

Legend:
Type in all cases: in vivo
[1] = test system: Chilo suppressalis (Striped Rice Stemborer); test: Example B4: Chilo suppressalis (striped rice stemborer), artificial diet; conditions: 144 h, application rate 200 ppm, L2 larvae, 6 days after infestation, read-out: control in at least one of the three categories (mortality, anti-feedant or growth inhibition)
Method: Example B4: Chilo suppressalis (Striped Rice Stemborer)
24-well microtiter plates with artificial diet were treated with aqueous test solutions prepared from 10′000 ppm DMSO stock solutions by pipetting. After drying, the plates were infested with L2 larvae (6-8 per well). The samples were assessed for mortality, anti-feeding effect, and growth inhibition in comparison to untreated samples 6 days after infestation. Control of Chilo suppressalis by a test sample is given when at least one of the categories mortality, anti-feedant effect, and growth inhibition is higher than the untreated sample.

[2] = test system: Spodoptera littoralis (Egyptian Cotton Leaf Worm); test: Example B9: Spodoptera littoralis (Egyptian cotton leaf worm), sprayed cotton leaf discs; conditions: foliar, 72 h, application rate 200 ppm, L1 larvae, 3 days after infestation, read-out: control in at least one of the three categories (mortality, anto-feedant or growth inhibition)
[3] = test system: Plutella xylostella (Diamond Back Moth); test: Example B5: Plutella xylostella (diamond back moth), artificial diet, 24-well; conditions: 192 h, application rate 200 ppm, eggs, 8 days after infestation, read-out: control in at least one of the two categories (mortality or growth inhibition)
Method: Example B5: Plutella xylostella (Diamond Back Moth)
24-well microtiter plates with artificial diet were treated with aqueous test solutions prepared from 10′000 ppm DMSO stock solutions by pipetting. After drying, Plutella eggs were pipetted through a plastic stencil onto a gel blotting paper and the plate was closed with it. The samples were assessed for mortality and growth inhibition in comparison to untreated samples 8 days after infestation.

[4] = test system: Diabrotica balteata (Corn Root Worm); test: Example B1: Diabrotica balteata (corn root worm), sprayed maize sprouts; conditions: 96 h, application rate 200 ppm, L2 larvae, 4 days after infestation, read-out: control in at least one of the two categories (mortality or growth inhibition)
Method: Example B1: Diabrotica balteata (Corn Root Worm)
Maize sprouts placed onto an agar layer in 24-well microtiter plates were treated with aqueous test solutions prepared from 10′000 ppm DMSO stock solutions by spraying. After drying, the plates were infested with L2 larvae (6 to 10 per well). The samples were assessed for mortality and growth inhibition in comparison to untreated samples 4 days after infestation.

CC(NC(=O)c1cc(C(F)(F)F)cc(C(F)(F)C2CC2)c1)c1nc(Br)nn1-c1ncc(OCC(F)(F)F)cn1 (stereo not drawn) [Compound P9, N-[1-[5-bromo-2-[5-(2,2,2-trifluoroethoxy)pyrimidin-2-yl]-1,2,4-triazol-3-yl]ethyl]-3-[cyclopropyl(difluoro)methyl]-5-(trifluoromethyl)benzamide]
≥ 80%: percent control (mortality, anti-feedant or growth inhibition) at 200 ppm [1] | percent control (mortality, anti-feedant or growth inhibition) at 200 ppm [2] | percent control (mortality or growth inhibition) at 200 ppm [3]

CC(NC(=O)c1cc(C(F)(F)F)cc(C(C)(C)C#N)c1)c1nc(Br)nn1-c1ncc(OCC(F)(F)F)cn1 (stereo not drawn) [Compound P39, N-[1-[5-bromo-2-[5-(2,2,2-trifluoroethoxy)pyrimidin-2-yl]-1,2,4-triazol-3-yl]ethyl]-3-(1-cyano-1-methyl-ethyl)-5-(trifluoromethyl)benzamide]
≥ 80%: percent control (mortality, anti-feedant or growth inhibition) at 200 ppm [1] | percent control (mortality or growth inhibition) at 200 ppm [4] | percent control (mortality, anti-feedant or growth inhibition) at 200 ppm [2] | percent control (mortality or growth inhibition) at 200 ppm [3]

CC(NC(=O)c1cc(C(F)(F)F)cc(C(C)(C)C#N)c1)c1nc(Br)nn1-c1ncc(OCC(F)F)cn1 (stereo not drawn) [Compound P38, N-[1-[5-bromo-2-[5-(2,2-difluoroethoxy)pyrimidin-2-yl]-1,2,4-triazol-3-yl]ethyl]-3-(1-cyano-1-methyl-ethyl)-5-(trifluoromethyl)benzamide]
≥ 80%: percent control (mortality, anti-feedant or growth inhibition) at 200 ppm [1] | percent control (mortality or growth inhibition) at 200 ppm [4] | percent control (mortality, anti-feedant or growth inhibition) at 200 ppm [2] | percent control (mortality or growth inhibition) at 200 ppm [3]

CC(NC(=O)c1cc(C2CC2)nc(C(F)(F)F)c1)c1nc(Br)nn1-c1ccc(C#N)cn1 (stereo not drawn) [Compound P20, N-[1-[5-bromo-2-(5-cyano-2-pyridyl)-1,2,4-triazol-3-yl]ethyl]-2-cyclopropyl-6-(trifluoromethyl)pyridine-4-carboxamide]
≥ 80%: percent control (mortality, anti-feedant or growth inhibition) at 200 ppm [1] | percent control (mortality or growth inhibition) at 200 ppm [4] | percent control (mortality, anti-feedant or growth inhibition) at 200 ppm [2] | percent control (mortality or growth inhibition) at 200 ppm [3]

CC(NC(=O)c1cc(C(F)(F)F)cc(C(F)(F)C2CC2)c1)c1nc(Br)nn1-c1ccc(C#N)cn1 (stereo not drawn) [Compound P21, N-[1-[5-bromo-2-(5-cyano-2-pyridyl)-1,2,4-triazol-3-yl]ethyl]-3-[cyclopropyl(difluoro)methyl]-5-(trifluoromethyl)benzamide]
≥ 80%: percent control (mortality, anti-feedant or growth inhibition) at 200 ppm [1] | percent control (mortality or growth inhibition) at 200 ppm [4] | percent control (mortality, anti-feedant or growth inhibition) at 200 ppm [2] | percent control (mortality or growth inhibition) at 200 ppm [3]

CC(NC(=O)c1cc(C2CC2C(F)(F)F)cc(C(F)(F)F)c1)c1nc(Br)nn1-c1ncc(OCC(F)F)cn1 (stereo not drawn) [Compound P13, N-[1-[5-bromo-2-[5-(2,2-difluoroethoxy)pyrimidin-2-yl]-1,2,4-triazol-3-yl]ethyl]-3-(trifluoromethyl)-5-[2-(trifluoromethyl)cyclopropyl]benzamide]
≥ 80%: percent control (mortality, anti-feedant or growth inhibition) at 200 ppm [1] | percent control (mortality or growth inhibition) at 200 ppm [4] | percent control (mortality, anti-feedant or growth inhibition) at 200 ppm [2] | percent control (mortality or growth inhibition) at 200 ppm [3]

CC(NC(=O)c1cc(C(F)(F)F)cc(C2(C#N)CC2)c1)c1nc(Br)nn1-c1ncc(OCC(F)(F)F)cn1 (stereo not drawn) [Compound P10, N-[1-[5-bromo-2-[5-(2,2,2-trifluoroethoxy)pyrimidin-2-yl]-1,2,4-triazol-3-yl]ethyl]-3-(1-cyanocyclopropyl)-5-(trifluoromethyl)benzamide]
≥ 80%: percent control (mortality, anti-feedant or growth inhibition) at 200 ppm [1] | percent control (mortality or growth inhibition) at 200 ppm [4] | percent control (mortality, anti-feedant or growth inhibition) at 200 ppm [2] | percent control (mortality or growth inhibition) at 200 ppm [3]

CC(NC(=O)c1cc(C2CC2)cc(C(F)(F)F)c1)c1nc(Br)nn1-c1ccc(C#N)cn1 (stereo not drawn) [Compound P19, N-[1-[5-bromo-2-(5-cyano-2-pyridyl)-1,2,4-triazol-3-yl]ethyl]-3-cyclopropyl-5-(trifluoromethyl)benzamide]
≥ 80%: percent control (mortality, anti-feedant or growth inhibition) at 200 ppm [1] | percent control (mortality or growth inhibition) at 200 ppm [4] | percent control (mortality, anti-feedant or growth inhibition) at 200 ppm [2] | percent control (mortality or growth inhibition) at 200 ppm [3]

CC(NC(=O)c1cc(C2CC2C(F)(F)F)cc(C(F)(F)F)c1)c1nc(Br)nn1-c1ccc(C#N)cn1 (stereo not drawn) [Compound P16, N-[1-[5-bromo-2-(5-cyano-2-pyridyl)-1,2,4-triazol-3-yl]ethyl]-3-(trifluoromethyl)-5-[2-(trifluoromethyl)cyclopropyl]benzamide]
≥ 80%: percent control (mortality, anti-feedant or growth inhibition) at 200 ppm [1] | percent control (mortality or growth inhibition) at 200 ppm [4] | percent control (mortality, anti-feedant or growth inhibition) at 200 ppm [2] | percent control (mortality or growth inhibition) at 200 ppm [3]

CC(NC(=O)c1cc(C(F)(F)F)cc(S(=O)(=O)C(F)(F)F)c1)c1nc(Br)nn1-c1ccc(C#N)cn1 (stereo not drawn) [Compound P17, N-[1-[5-bromo-2-(5-cyano-2-pyridyl)-1,2,4-triazol-3-yl]ethyl]-3-(trifluoromethyl)-5-(trifluoromethylsulfonyl)benzamide]
≥ 80%: percent control (mortality, anti-feedant or growth inhibition) at 200 ppm [1] | percent control (mortality or growth inhibition) at 200 ppm [4] | percent control (mortality, anti-feedant or growth inhibition) at 200 ppm [2] | percent control (mortality or growth inhibition) at 200 ppm [3]

CC(NC(=O)c1cc(C2CC2(F)F)cc(C(F)(F)F)c1)c1nc(Br)nn1-c1ccc(OCC(F)(F)F)cn1 (stereo not drawn) [Compound P29, N-[1-[5-bromo-2-[5-(2,2,2-trifluoroethoxy)-2-pyridyl]-1,2,4-triazol-3-yl]ethyl]-3-(2,2-difluorocyclopropyl)-5-(trifluoromethyl)benzamide]
≥ 80%: percent control (mortality, anti-feedant or growth inhibition) at 200 ppm [1] | percent control (mortality or growth inhibition) at 200 ppm [3]

CC(NC(=O)c1cc(C2CC2)cc(C(F)(F)F)c1)c1nc(Br)nn1-c1ccc(OCC(F)(F)F)cn1 (stereo not drawn) [Compound P28, N-[1-[5-bromo-2-[5-(2,2,2-trifluoroethoxy)-2-pyridyl]-1,2,4-triazol-3-yl]ethyl]-3-cyclopropyl-5-(trifluoromethyl)benzamide]
≥ 80%: percent control (mortality, anti-feedant or growth inhibition) at 200 ppm [1] | percent control (mortality or growth inhibition) at 200 ppm [3]

CC(NC(=O)c1cc(C(F)(F)F)cc(C(F)(F)C2CC2)c1)c1nc(Br)nn1-c1ncc(OCC(F)F)cn1 (stereo not drawn) [Compound P15, N-[1-[5-bromo-2-[5-(2,2-difluoroethoxy)pyrimidin-2-yl]-1,2,4-triazol-3-yl]ethyl]-3-[cyclopropyl(difluoro)methyl]-5-(trifluoromethyl)benzamide]
≥ 80%: percent control (mortality, anti-feedant or growth inhibition) at 200 ppm [1] | percent control (mortality or growth inhibition) at 200 ppm [4] | percent control (mortality, anti-feedant or growth inhibition) at 200 ppm [2] | percent control (mortality or growth inhibition) at 200 ppm [3]

CC(NC(=O)c1cc(C2CC2)cc(C(F)(F)F)c1)c1nc(Br)nn1-c1ccc(OC(F)F)cn1 (stereo not drawn) [Compound P25, N-[1-[5-bromo-2-[5-(difluoromethoxy)-2-pyridyl]-1,2,4-triazol-3-yl]ethyl]-3-cyclopropyl-5-(trifluoromethyl)benzamide]
≥ 80%: percent control (mortality, anti-feedant or growth inhibition) at 200 ppm [1] | percent control (mortality or growth inhibition) at 200 ppm [4] | percent control (mortality, anti-feedant or growth inhibition) at 200 ppm [2] | percent control (mortality or growth inhibition) at 200 ppm [3]

CC(NC(=O)c1cc(C(F)(F)F)cc(C2(C#N)CC2)c1)c1nc(Br)nn1-c1ccc(OCC(F)(F)F)cn1 (stereo not drawn) [Compound P23, N-[1-[5-bromo-2-[5-(2,2,2-trifluoroethoxy)-2-pyridyl]-1,2,4-triazol-3-yl]ethyl]-3-(1-cyanocyclopropyl)-5-(trifluoromethyl)benzamide]
≥ 80%: percent control (mortality, anti-feedant or growth inhibition) at 200 ppm [1] | percent control (mortality, anti-feedant or growth inhibition) at 200 ppm [2] | percent control (mortality or growth inhibition) at 200 ppm [3]

CC(NC(=O)c1cc(C(F)(F)F)cc(C(C)(C)C#N)c1)c1nc(Br)nn1-c1ccc(OCC(F)(F)F)cn1 (stereo not drawn) [Compound P41, N-[1-[5-bromo-2-[5-(2,2,2-trifluoroethoxy)-2-pyridyl]-1,2,4-triazol-3-yl]ethyl]-3-(1-cyano-1-methyl-ethyl)-5-(trifluoromethyl)benzamide]
≥ 80%: percent control (mortality, anti-feedant or growth inhibition) at 200 ppm [1] | percent control (mortality or growth inhibition) at 200 ppm [3]

CC(NC(=O)c1cc(C(F)(F)F)cc(C2(C#N)CC2)c1)c1nc(Br)nn1-c1ncc(OCC(F)F)cn1 (stereo not drawn) [Compound P3, N-[1-[5-bromo-2-[5-(2,2-difluoroethoxy)pyrimidin-2-yl]-1,2,4-triazol-3-yl]ethyl]-3-(1-cyanocyclopropyl)-5-(trifluoromethyl)benzamide]
≥ 80%: percent control (mortality, anti-feedant or growth inhibition) at 200 ppm [1] | percent control (mortality or growth inhibition) at 200 ppm [4] | percent control (mortality, anti-feedant or growth inhibition) at 200 ppm [2] | percent control (mortality or growth inhibition) at 200 ppm [3]
